We go through 21 molecules from patent US12209079B2 (GENERAL INCORPORATED ASSOCIATION PHARMA VALLEY PROJECT …, priority 2017, dated 2025).

Assay [1] has as its target rhIDO (recombinant human IDO) (Homo sapiens, UniProt P14902). Put plainly: Enzyme assay using rhIDO (rate of kynurenine production). The note with it: 2 h; final concentration of the compound 10 μM; rate relative to reaction without compound; read-out: rhIDO-mediated kynurenine production. It is filed as biochemical. The essentials:
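rhIDO preincubated with compound 10 min at 37 °C in phosphate buffer with ascorbate, methylene blue and catalase; started with 2 mM tryptophan solution (stock) and run 120 min at 37 °C. Stopped with TCA and heated to convert N-formylkynurenine; kynurenine read at 490 nm after p-dimethylbenzaldehyde, background-subtracted, as % of no-compound control.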

In assay [2] the target is rhTDO (recombinant human TDO) (Homo sapiens, UniProt P48775). Put plainly: Enzyme assay using rhTDO (rate of kynurenine production). The assay is classed as biochemical. The note with it: 2 h; final concentration of the compound 10 μM; rate relative to reaction without compound; read-out: rhTDO-mediated kynurenine production. The essentials:
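Kynurenine output, as percent of untreated control after background subtraction, read at 490 nm with p-dimethylbenzaldehyde following TCA quench and 15 min heating at 50 °C. Reaction: rhTDO with compound, 10 min preincubation then 120 min at 37 °C, started by 20 mM tryptophan stock, in phosphate/ascorbate/methylene blue/catalase.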

A further assay deals with T1, IDO in A431 cells (Homo sapiens, UniProt P14902).
T1 construct: endogenous in cells; host or cells: A431 cells, IFN-γ stimulated
Nature of the assay: IDO cell-based assay, kynurenine production in IFN-γ stimulated A431 cells. The note with it: A-431, 24 h; final concentration of the compound 10 μM; rate relative to culture without compound. The essentials:
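A431 cells were cultured 24 h, then preincubated 1 h with compound in medium containing 178 μM L-tryptophan, and stimulated with IFN-γ (diluted to 100 ng/mL before addition) for 24 h. Kynurenine was measured by p-dimethylbenzaldehyde absorbance at 460 nm, background-subtracted, and expressed as % production versus no-compound control.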

The target in another assay is T2, TDO in A172 cells (Homo sapiens, UniProt P48775).
T2 construct: endogenous in cells; host or cells: A172 cells
Nature of the assay: TDO cell-based assay, kynurenine production in A172 cells. The note with it: A 172; final concentration of the compound 10 μM; rate relative to culture without compound. The essentials:
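A172 cells were preincubated with compound for 1 h, then given L-tryptophan (final 524 μM) for 24 h at 37 °C. Kynurenine was read at 460 nm after p-dimethylbenzaldehyde/TCA reagent, background-subtracted, and expressed as % of no-compound production.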

Where a name gives a salt, the structure may show the parent alone.

Sequence of rhTDO (recombinant human TDO) (P48775 whole entry): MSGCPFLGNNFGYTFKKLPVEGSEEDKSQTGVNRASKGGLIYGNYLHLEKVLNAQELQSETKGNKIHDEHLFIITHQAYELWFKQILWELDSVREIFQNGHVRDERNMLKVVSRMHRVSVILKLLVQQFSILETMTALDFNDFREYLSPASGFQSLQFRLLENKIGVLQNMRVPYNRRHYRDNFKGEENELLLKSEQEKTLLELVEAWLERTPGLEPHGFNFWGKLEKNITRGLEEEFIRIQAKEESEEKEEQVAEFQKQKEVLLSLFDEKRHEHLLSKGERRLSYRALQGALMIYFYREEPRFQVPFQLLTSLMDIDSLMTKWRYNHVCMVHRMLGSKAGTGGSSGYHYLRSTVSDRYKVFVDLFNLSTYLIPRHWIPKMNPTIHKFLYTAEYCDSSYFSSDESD
T2 sequence (P48775 whole entry): as above
T1 sequence (P14902 whole entry): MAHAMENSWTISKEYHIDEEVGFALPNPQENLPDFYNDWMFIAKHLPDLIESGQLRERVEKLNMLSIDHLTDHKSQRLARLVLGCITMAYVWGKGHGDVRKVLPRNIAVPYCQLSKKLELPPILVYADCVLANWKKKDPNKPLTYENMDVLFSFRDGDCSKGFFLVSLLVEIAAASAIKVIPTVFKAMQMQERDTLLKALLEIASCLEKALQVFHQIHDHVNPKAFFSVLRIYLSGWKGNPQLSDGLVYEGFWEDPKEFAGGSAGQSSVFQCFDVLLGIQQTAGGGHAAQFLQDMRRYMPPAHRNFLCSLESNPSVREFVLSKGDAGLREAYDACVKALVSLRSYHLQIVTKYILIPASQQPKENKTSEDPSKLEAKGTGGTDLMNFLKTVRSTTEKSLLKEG
Sequence of rhIDO (recombinant human IDO) (P14902 whole entry): as above

`COc1cccc(CNC(=O)c2ccc(Br)cc2CSC(=N)N)c1` [Compound 105, 5-Bromo-2-((3-methoxybenzyl)carbamoyl)benzyl carbamimidothioate hydrobromide]: the remaining activity at 10 µM was determined as 98% in assay [1], 68% in assay [2], 107% at IDO in A431 cells and 42% on TDO in A172 cells.

With `N/C(=N\c1ccc(Cl)cc1)SCc1cc(Cl)c(Cl)cc1CS/C(N)=N/c1ccc(Cl)cc1` [Compound 123, (4,5-Dichloro-1,2-phenylene)bis(methylene) (E,E)-bis(N′-(4-chlorophenyl)carbamimidothioate) dihydrobromide], the remaining activity at 10 µM in assay [1] is -2%; in assay [2], 10%; on IDO in A431 cells it was 12%; at TDO in A172 cells it was 4%.

For `FC(F)(F)c1ccc(CN2CN=C(SCc3ccccc3CSC3=NCN(Cc4ccc(C(F)(F)F)cc4)CN3)NC2)cc1` [Compound 42, 1,2-Bis(((5-(4-(trifluoromethyl)benzyl)-1,4,5,6-tetrahydro-1,3,5-triazin-2-yl)thio)methyl)benzene], the remaining activity at 10 µM in assay [1] was 68%; in assay [2] it was 41%; at IDO in A431 cells, 6%; on TDO in A172 cells it was 2%.

With `N=C(N)SCc1c(F)c(F)c(F)c(F)c1CSC(=N)N` [Compound 6, (perfluoro-1,2-phenylene)bis(methylene) dicarbamimidothioate dihydrobromide], the remaining activity at 10 µM in assay [1] worked out at 15%; in assay [2], 9%; at IDO in A431 cells, 75%; at TDO in A172 cells it was 74%.

Regarding `N/C(=N\c1ccc(F)cc1)SCc1ccc(F)cc1CS/C(N)=N/c1ccc(F)cc1` [Compound 127, (4-Fluoro-1,2-phenylene)bis(methylene) (E,E)-bis(N′-(4-fluorophenyl)carbamimidothioate) dihydrobromide], the remaining activity at 10 µM stood at 0% in assay [1], 12% in assay [2], 8% at IDO in A431 cells and 10% on TDO in A172 cells.

`N=C(N)SCc1cc(F)c(F)cc1CSC(=N)N` [Compound 131, (4,5-Difluoro-1,2-phenylene)bis(methylene) dicarbamimidothioate dihydrobromide]: the remaining activity at 10 µM in assay [1] was determined as 7%; in assay [2] it was 3%; on IDO in A431 cells, 5%; on TDO in A172 cells, 6%.

As to `COc1ccc(CSC(=N)N)c(CSC(=N)N)c1` [Compound 35, (4-Methoxy-1,2-phenylene)bis(methylene) dicarbamimidothioate dihydrobromide], the remaining activity at 10 µM in assay [1] is 24%; in assay [2] it was 7%; at IDO in A431 cells, 4%; at TDO in A172 cells it was 0%.

Turning to `N=C(N)[Se]Cc1ccccc1C[Se]C(=N)N` [Compound 108, 1,2-Phenylenebis(methylene) dicarbamimidoselenoate dihydrobromide], the remaining activity at 10 µM came out at 51% in assay [1], 55% in assay [2], 5% on IDO in A431 cells and 41% on TDO in A172 cells.

In the case of `N/C(=N\c1ccc(Br)cc1)SCc1cc(Br)ccc1C(=O)NCc1ccc(Cl)cc1` [Compound 84, 5-Bromo-2-((4-chlorobenzyl)carbamoyl)benzyl (E)-N′-(4-bromophenyl)carbamimidothioate hydrobromide], the remaining activity at 10 µM is 84% in assay [1], 65% in assay [2], 56% on IDO in A431 cells and 18% on TDO in A172 cells.

On to `N=C(N)SCc1cc(Br)ccc1C(=O)NCc1ccc(F)c(Cl)c1` [Compound 116, 5-Bromo-2-((3-chloro-4-fluorobenzyl)carbamoyl)benzyl carbamimidothioate hydrobromide], for which the remaining activity at 10 µM in assay [1] came to 85%; in assay [2] it was 21%; on IDO in A431 cells, 92%; on TDO in A172 cells it was 55%.

As to `Fc1cccc(CN2CN=C(SCc3ccccc3CSC3=NCN(Cc4cccc(F)c4)CN3)NC2)c1` [Compound 45], the remaining activity at 10 µM is 65% in assay [1], 33% in assay [2], 13% on IDO in A431 cells and 0% on TDO in A172 cells.

`Brc1cccc(CCN2CN=C(SCc3ccccc3CSC3=NCN(CCc4cccc(Br)c4)CN3)NC2)c1` [Compound 19, 1,2-bis(((5-(3-bromophenethyl)-1,4,5,6-tetrahydro-1,3,5-triazin-2-yl)thio)methyl)benzene]: the remaining activity at 10 µM in assay [1] was determined as 43%; in assay [2], 46%; on IDO in A431 cells, 5%; on TDO in A172 cells, 1%.

Turning to `N=C(N)SCc1ccc(Br)cc1C(=O)NCc1ccc(Br)cc1` [Compound 117, 4-Bromo-2-((4-bromobenzyl)carbamoyl)benzyl carbamimidothioate hydrobromide], the remaining activity at 10 µM was determined as 2% in assay [1], 9% in assay [2], 7% on IDO in A431 cells and 31% on TDO in A172 cells.

In the case of `N/C(=N\c1ccc(Br)cc1)SCc1ccc(F)cc1CS/C(N)=N/c1ccc(Br)cc1` [Compound 126, (4-Fluoro-1,2-phenylene)bis(methylene) (E,E)-bis(N′-(4-bromophenyl)carbamimidothioate) dihydrobromide], the remaining activity at 10 µM was -1% in assay [1], 6% in assay [2], 13% at IDO in A431 cells and 10% on TDO in A172 cells.

As for `c1ccc(CS/C(=N/C2CCCCC2)NC2CCCCC2)c(CS/C(=N/C2CCCCC2)NC2CCCCC2)c1` [Compound 58, 1,2-Phenylenebis(methylene) (E,E)-bis(N,N′-dicyclohexylcarbamimidothioate) dihydrobromide], the remaining activity at 10 µM in assay [1] stood at 73%; in assay [2], 83%; at IDO in A431 cells, 1%; on TDO in A172 cells it was 9%.

Turning to `N/C(=N\c1ccc(F)c(Cl)c1)SCc1ccccc1CS/C(N)=N/c1ccc(F)c(Cl)c1` [Compound 122, 1,2-Phenylenebis(methylene) (E,E)-bis(N-(3-chloro-4-fluorophenyl)carbamimidothioate) dihydrobromide], the remaining activity at 10 µM is -3% in assay [1], 8% in assay [2], 2% at IDO in A431 cells and 7% on TDO in A172 cells.

With `Fc1ccc(CSC2=NCN(Cc3ccc(F)c(Cl)c3)CN2)c(CSC2=NCN(Cc3ccc(F)c(Cl)c3)CN2)c1` [Compound 146, 6,6′-(((4-Fluoro-1,2-phenylene)bis(methylene))bis(sulfanediyl))bis(3-(3-chloro-4-fluorobenzyl)-1,2,3,4-tetrahydro-1,3,5-triazine)], the remaining activity at 10 µM is 54% in assay [1], 26% in assay [2], 16% on IDO in A431 cells and 17% on TDO in A172 cells.

On to `N/C(=N\c1ccc(F)c(Cl)c1)SCc1cc(Cl)c(Cl)cc1CS/C(N)=N/c1ccc(F)c(Cl)c1` [Compound 134, (4,5-Dichloro-1,2-phenylene)bis(methylene) (E,E)-bis(N′-(3-chloro-4-fluorophenyl)carbamimidothioate) dihydrobromide], for which the remaining activity at 10 µM in assay [1] is -2%; in assay [2], 5%; at IDO in A431 cells, 10%; at TDO in A172 cells, 5%.

Consider `CNC(=O)Cc1ccccc1CS/C(N)=N/c1ccc(F)c(Cl)c1` [Compound 80, 2-(2-(Methylamino)-2-oxoethyl)benzyl (E)-N′-(3-chloro-4-fluorophenyl)carbamimidothioate hydrobromide], for which the remaining activity at 10 µM turned out to be 97% in assay [1], 38% in assay [2], 66% at IDO in A431 cells and 45% at TDO in A172 cells.

With `Fc1ccc(CN2CN=C(SCc3ccccc3CSC3=NCN(Cc4ccc(F)c(F)c4)CN3)NC2)cc1F` [Compound 43, 1,2-Bis(((5-(3,4-difluorobenzyl)-1,4,5,6-tetrahydro-1,3,5-triazin-2-yl)thio)methyl)benzene], the remaining activity at 10 µM in assay [1] is 71%; in assay [2] it was 41%; on IDO in A431 cells, 11%; on TDO in A172 cells it was -2%.

In the case of `CNC(=O)c1ncccc1CSC(=N)N` [Compound 98, (2-(Methylcarbamoyl)pyridin-3-yl)methyl carbamimidothioate hydrobromide], the remaining activity at 10 µM in assay [1] was found to be 95%; in assay [2] it was 91%; on IDO in A431 cells, 107%; on TDO in A172 cells it was 133%.
